Test results taken from PubChem BioAssay (NCI).
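All cell lines were grown in 96-well plates and treated with compound for 48 hours. TGI marks complete inhibition of growth.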 Residues, ends and D or L forms follow the SMILES beside them. *: point of attachment. Boc = CC(C)(C)OC(=O)*; OBn = c1ccc(CO*)cc1

How the values were obtained:
Experiment in all cases: DTP human tumour cell line panel, 48 h
NCI-H226 lung = system: NCI-H226 lung
OVCAR-5 ovarian = system: OVCAR-5 ovarian
HT29 colon = system: HT29 colon
EKVX NSCLC = system: EKVX NSCLC
SF-268 CNS = system: SF-268 CNS
UACC-62 melanoma = system: UACC-62 melanoma
U251 CNS = system: U251 CNS
786-0 renal = system: 786-0 renal
MDA-MB-231 breast = system: MDA-MB-231 breast
CCRF-CEM leukemia = system: CCRF-CEM leukemia
PC-3 prostate = system: PC-3 prostate
MDA-N = system: MDA-N
M14 melanoma = system: M14 melanoma
MOLT-4 leukemia = system: MOLT-4 leukemia
TK-10 renal = system: TK-10 renal
HOP-62 NSCLC = system: HOP-62 NSCLC
SF-295 CNS = system: SF-295 CNS
SK-MEL-2 melanoma = system: SK-MEL-2 melanoma
HCC-2998 colon = system: HCC-2998 colon
HOP-92 NSCLC = system: HOP-92 NSCLC

Structure (SMILES)	TGI (NCI-H226 lung)	TGI (OVCAR-5 ovarian)	TGI (HT29 colon)	TGI (EKVX NSCLC)	TGI (SF-268 CNS)	TGI (UACC-62 melanoma)	TGI (U251 CNS)	TGI (786-0 renal)	TGI (MDA-MB-231 breast)	TGI (CCRF-CEM leukemia)	TGI (PC-3 prostate)	TGI (MDA-N)	TGI (M14 melanoma)	TGI (MOLT-4 leukemia)	TGI (TK-10 renal)	TGI (HOP-62 NSCLC)	TGI (SF-295 CNS)	TGI (SK-MEL-2 melanoma)	TGI (HCC-2998 colon)	TGI (HOP-92 NSCLC)
Oc1ccccc1C1=NOC(c2ccc(C(F)(F)F)cc2)C1 (centres undefined)	> 50 µM	> 50 µM	> 50 µM	> 50 µM	> 50 µM	> 50 µM	> 50 µM	> 50 µM	> 50 µM	> 50 µM	> 50 µM	> 50 µM	> 50 µM	> 50 µM	> 16.2 µM	> 50 µM	> 50 µM	> 50 µM	> 50 µM	
CCN(CC)CCCNc1nc(=O)[nH]c(C)c1C(=O)Nc1ccc2c(c1)c1ccccc1n2CC	> 100 µM	> 100 µM	> 100 µM	> 100 µM		> 100 µM	> 100 µM	> 100 µM	> 100 µM	> 100 µM	> 100 µM	> 100 µM	> 100 µM	> 100 µM	> 100 µM	> 100 µM	> 100 µM	> 100 µM	> 100 µM	> 100 µM
CC(C)(C)OC/C=C1\C(=O)O[C@H]2C[C@@H](O[Si](C)(C)C(C)(C)C)C[C@@H]12	> 100 µM	> 100 µM	> 100 µM	> 100 µM	> 100 µM		> 100 µM	> 100 µM	> 100 µM	> 100 µM	> 100 µM	> 100 µM	> 100 µM	> 100 µM	> 100 µM	> 100 µM	> 100 µM	> 100 µM	> 100 µM	> 100 µM
O=[N+]([O-])C(=C1Nc2ccccc2N1)/C(Cl)=C(/Cl)N1CCOCC1	> 100 µM	> 100 µM	> 100 µM	> 100 µM	62.5 µM	> 100 µM	> 100 µM	> 100 µM	> 100 µM	> 100 µM	> 100 µM	> 100 µM	> 100 µM	> 100 µM		> 100 µM	> 100 µM	> 100 µM	> 100 µM	
O=[N+]([O-])/C(C(Cl)=C(Cl)Cl)=C(\Nc1ccccc1)n1nnc2ccccc21	> 100 µM	> 100 µM	> 100 µM	> 100 µM	36.3 µM	> 100 µM	> 100 µM	> 100 µM	> 100 µM	65.9 µM	> 100 µM	> 100 µM	> 100 µM	> 100 µM		93.6 µM	> 100 µM	75.2 µM	> 100 µM	
COc1ccc(/C=C/C(=O)CC(=O)/C=C/c2ccc(OC)cc2)cc1	> 100 µM	> 100 µM	> 100 µM	> 100 µM	> 100 µM	> 100 µM	> 100 µM	89.1 µM	> 100 µM	54.9 µM	> 100 µM	> 100 µM	> 100 µM	70.8 µM		> 100 µM	> 100 µM	> 100 µM	> 100 µM	
CN(C)S(=O)(=O)n1cnc(CO)c1	> 100 µM	> 100 µM		> 100 µM	> 100 µM		> 100 µM	> 100 µM	> 100 µM		> 100 µM	> 100 µM	> 100 µM	> 100 µM	> 100 µM	> 100 µM	> 100 µM	> 100 µM	> 100 µM	> 100 µM
COc1ccc(N=Nc2c(C)c(C#N)c(=S)n(C3OC(CO)C(O)C(O)C3O)c2C)cc1 (centres undefined)		> 100 µM	> 100 µM		> 100 µM	> 100 µM	> 100 µM	> 100 µM	> 100 µM	89.2 µM	> 100 µM	> 100 µM	> 100 µM	84.6 µM	> 100 µM	> 100 µM	> 100 µM	> 100 µM		64.8 µM
NC(Cc1ccc(S(=O)(=O)O)cc1)C(=O)NC(Cc1ccc(S(=O)(=O)O)cc1)C(=O)NC(Cc1ccc(S(=O)(=O)O)cc1)C(=O)O (centres undefined)	> 100 µM	> 100 µM	> 100 µM	> 100 µM	> 100 µM	> 100 µM	> 100 µM	> 100 µM	> 100 µM	> 100 µM	> 100 µM	> 100 µM	> 100 µM	> 100 µM	> 100 µM	> 100 µM	> 100 µM	> 100 µM	> 100 µM	
Cc1c(N/C=C(\C#N)C(=O)c2ccc(Cl)cc2)c(=O)n(-c2ccccc2)n1C	> 100 µM	> 100 µM		> 100 µM		> 100 µM	> 100 µM	> 100 µM	> 100 µM	> 100 µM	> 100 µM	> 100 µM	> 100 µM		> 100 µM		> 100 µM	> 100 µM	> 100 µM	> 100 µM
CN(C)C=NCCN1CCOCC1	> 100 µM	> 100 µM	> 100 µM	> 100 µM	> 100 µM	> 100 µM	> 100 µM	> 100 µM	> 100 µM	> 100 µM	> 100 µM	> 100 µM	> 100 µM	> 100 µM	> 100 µM	> 100 µM	> 100 µM	> 100 µM		> 100 µM
CC(C)CC(NC(=O)OC(C)(C)C)C(=O)N1CCCC1C(=O)OCc1ccccc1 (stereo not drawn) (Boc-Leu-Pro-OBn; configuration not given here)	> 100 µM	> 100 µM	> 100 µM	> 100 µM	> 100 µM	> 100 µM	> 100 µM	> 100 µM	> 100 µM		> 100 µM	> 100 µM	> 100 µM		> 100 µM		> 100 µM	> 100 µM		> 100 µM
Cc1ccc(/C=C2\CCCC(CN(C)C)C2=O)cc1 (centres undefined)	6.82 µM	29.5 µM	3.07 µM	31.5 µM		5.09 µM	26.4 µM	3.23 µM	3.08 µM	> 100 µM	8.9 µM	3.85 µM	3.31 µM	> 100 µM	8.26 µM	34.7 µM	31.2 µM	15.4 µM	27.4 µM	3.75 µM
